Results reported in the supplement of paper PMC8960247.
Structures can show the parent of a compound that is named as a salt. ± gives the standard error.

Columns and labels:
[1] = system: 621-102 (TSC2-deficient); assay: relative viability vs DMSO; higher = less cytotoxic; conditions: serum: 10% FBS, 72 h
[2] = system: 621-103 (TSC2-rescued); assay: as above; conditions: serum: 10% FBS, 72 h
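Further: immortalized renal angiomyolipoma cells stably carrying empty vector or TSC2, dosed in 384-well plates in DMEM, viability normalized to vehicle-treated wells within each plate.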

| Structure (SMILES) | relative viability ([1]; 0.0001 µM) | relative viability ([1]; 0.001 µM) | relative viability ([1]; 0.01 µM) | relative viability ([1]; 0.1 µM) | relative viability ([1]; 1 µM) | relative viability ([1]; 10 µM) | relative viability ([2]; 0.0001 µM) | relative viability ([2]; 0.001 µM) | relative viability ([2]; 0.01 µM) | relative viability ([2]; 0.1 µM) | relative viability ([2]; 1 µM) | relative viability ([2]; 10 µM) |
| --- | --- | --- | --- | --- | --- | --- | --- | --- | --- | --- | --- | --- |
| Nc1cc(C(F)(F)F)c(-c2cc(N3CCOCC3)nc(N3CCOCC3)n2)cn1 [BKM120 (NVP-BKM120)] | 97 ± 2% | 102 ± 3.6% | 95.9 ± 2.2% | 92.9 ± 2.6% | 71.9 ± 3.6% | 20.01 ± 0.19% | 102 ± 2.4% | 112 ± 2.3% | 109.19 ± 0.024% | 104 ± 5% | 58.5 ± 2.1% | 21 ± 0.97% |
| COc1ccccc1N1CCN(CCN2C(=O)CC3(CCCC3)CC2=O)CC1 [BMY 7378] | 104.1 ± 0.41% | 110 ± 3.7% | 100 ± 3.8% | 104.4 ± 0.88% | 105 ± 0.26% | 95.3 ± 2.3% | 96.7 ± 4.4% | 96.58 ± 0.1% | 99.07 ± 0.31% | 98.2 ± 1.8% | 105 ± 1.9% | 105 ± 1.3% |
| CC(C)c1cnn2c(NCc3ccccc3)cc(NCCCCCCN)nc12 [BS-181] | 112 ± 2.3% | 107 ± 3.7% | 106.4 ± 0.99% | 94.74 ± 0.88% | 116 ± 2.2% | 81.2 ± 7.1% | 101 ± 2.2% | 101.1 ± 1% | 99.7 ± 1.7% | 88.3 ± 1.2% | 100 ± 1.4% | 55.7 ± 5.2% |
| NC(=O)c1ccc(I)c([N+](=O)[O-])c1 [BSI-201] | 136 ± 2.7% | 130 ± 0.89% | 126.6 ± 0.33% | 116.12 ± 0.099% | 113.7 ± 0.28% | 110 ± 3.1% | 108 ± 2.5% | 103 ± 1.1% | 105.9 ± 0.65% | 102 ± 1.9% | 100.5 ± 0.3% | 102.3 ± 0.13% |
| O=C(O)[C@H]1O[C@@H](Oc2cc3oc(-c4ccccc4)cc(=O)c3c(O)c2O)[C@H](O)[C@@H](O)[C@@H]1O [Baicalin] | 97.45 ± 0.88% | 108 ± 3.8% | 106 ± 2.6% | 106 ± 1.6% | 110 ± 1.3% | 98.5 ± 1.3% | 113.5 ± 0.92% | 106 ± 1.2% | 118.8 ± 1.1% | 106 ± 4.6% | 105 ± 1.2% | 107.9 ± 0.63% |
| CCOC(=O)[C@H](CCc1ccccc1)N[C@H]1CCc2ccccc2N(CC(=O)O)C1=O [Benazepril HCl] | 68 ± 2.9% | 82 ± 2.6% | 83 ± 5.2% | 81.1 ± 7.4% | 74.6 ± 9.9% | 69.8 ± 4.9% | 82.5 ± 11% | 89.7 ± 11% | 89.6 ± 6.1% | 98.8 ± 6.3% | 95.2 ± 4.9% | 89.9 ± 6.7% |
| NC(CO)C(=O)NNCc1ccc(O)c(O)c1O (stereo not drawn) [Benserazide HCl] | 98.1 ± 5.3% | 93.8 ± 2.6% | 103 ± 3.5% | 107 ± 1.3% | 106 ± 2.3% | 101 ± 1.4% | 108.8 ± 0.38% | 104 ± 2.7% | 110 ± 2.1% | 109.5 ± 0.88% | 114 ± 2.6% | 105 ± 3.1% |
| CC(C[N+](C)(C)C)OC(N)=O (stereo not drawn) [Bethanechol chloride] | 103 ± 3.5% | 105 ± 3.1% | 104 ± 2.9% | 103.4 ± 0.49% | 100 ± 1.8% | 101 ± 3% | 96.28 ± 0.78% | 102 ± 1.9% | 105 ± 1.4% | 105 ± 0.93% | 103.7 ± 0.9% | 101.6 ± 0.12% |
| CC(O)(CS(=O)(=O)c1ccc(F)cc1)C(=O)Nc1ccc(C#N)c(C(F)(F)F)c1 (stereo not drawn) [Bicalutamide (Casodex)] | 126 ± 1.3% | 119 ± 3.4% | 112 ± 1.2% | 102 ± 2.8% | 110.6 ± 0.79% | 112 ± 1.8% | 105.2 ± 0.55% | 102 ± 1.1% | 101.3 ± 0.41% | 102 ± 1.6% | 102.5 ± 0.88% | 102 ± 1.1% |
| COc1cc(Nc2c(C#N)cnc3cc(OCCCN4CCN(C)CC4)c(OC)cc23)c(Cl)cc1Cl [Bosutinib (SKI-606)] | 94.6 ± 3.7% | 109 ± 3.2% | 92.7 ± 6.8% | 103 ± 7.9% | 64.3 ± 7.2% | 3.18 ± 0.88% | 85.39 ± 0.5% | 93.6 ± 3% | 94.5 ± 6% | 90.2 ± 6.4% | 69.5 ± 4% | 1.86 ± 0.19% |
| CCCCN1CCCCC1C(=O)Nc1c(C)cccc1C (stereo not drawn) [Bupivacaine HCl (marcain)] | 97.4 ± 2.2% | 104 ± 4.4% | 93.47 ± 0.53% | 93.5 ± 1.1% | 94.1 ± 1.3% | 100 ± 2.3% | 89.4 ± 2.3% | 102 ± 4.2% | 98.8 ± 1.7% | 104 ± 4.7% | 94.37 ± 0.47% | 98.415 ± 0.003% |
| CC[C@H](Nc1ncnc2[nH]cnc12)c1nc2cccc(F)c2c(=O)n1-c1ccccc1 [CAL-101] | 104.38 ± 0.033% | 117.5 ± 0.72% | 111 ± 5.8% | 106 ± 3% | 104.1 ± 0.72% | 92.41 ± 0.24% | 116 ± 3.1% | 109 ± 3.1% | 114 ± 1.2% | 104 ± 3.4% | 109 ± 2% | 92.7 ± 4.7% |
| O=C(O)c1ccc2c(c1)nc(Nc1cccc(Cl)c1)c1ccncc12 [CX-4945] | 95 ± 3.3% | 93.1 ± 1.6% | 102 ± 2.2% | 103.8 ± 0.2% | 101 ± 2.9% | 80.4 ± 0.94% | 109 ± 5.8% | 106.3 ± 0.77% | 111 ± 7.9% | 106 ± 3% | 104 ± 3.2% | 72.54 ± 0.24% |
| Cc1nc(N)sc1-c1ccnc(Nc2ccc(N3CCOCC3)cc2)n1 [CYC116] | 90.7 ± 2.7% | 102 ± 4.6% | 113.07 ± 0.029% | 100.4 ± 0.47% | 93.08 ± 0.77% | 50.55 ± 0.13% | 91.6 ± 5.4% | 94.51 ± 0.42% | 101.6 ± 0.83% | 95.1 ± 4.3% | 72 ± 3.4% | 28.3 ± 0.44% |
| CC[C@@]1(O)C(=O)OCc2c1cc1n(c2=O)Cc2cc3ccccc3nc2-1 [Camptothecine] | 104.3 ± 0.41% | 106 ± 1.9% | 101 ± 2.4% | 57.8 ± 2.9% | 12 ± 0.68% | 19.5 ± 1.7% | 100.6 ± 0.37% | 100.7 ± 0.47% | 96.3 ± 4.5% | 44.6 ± 2.1% | 10.3 ± 0.36% | 17.79 ± 0.099% |
| CCOc1nc2cccc(C(=O)OC(C)OC(=O)OC3CCCCC3)c2n1Cc1ccc(-c2ccccc2-c2nn[nH]n2)cc1 (stereo not drawn) [Candesartan cilexetil] | 106.1 ± 0.3% | 97.7 ± 2.1% | 102 ± 2.7% | 106 ± 1.2% | 96.9 ± 2.4% | 97.55 ± 0.87% | 96.526 ± 0.053% | 95.8 ± 3.5% | 94.03 ± 0.16% | 97.8 ± 1.6% | 99.8 ± 5.4% | 94.55 ± 0.33% |
| CCCCCOC(=O)Nc1nc(=O)n([C@@H]2O[C@H](C)[C@@H](O)[C@H]2O)cc1F [Capecitabine (Xeloda)] | 108.6 ± 0.75% | 112.3 ± 1.1% | 110 ± 2.9% | 106 ± 1.7% | 110.4 ± 0.14% | 100.35 ± 0.077% | 103 ± 1.9% | 99.6 ± 1.4% | 101.3 ± 0.12% | 99.27 ± 0.86% | 99.79 ± 0.64% | 100 ± 1.3% |
| NC(=O)N1c2ccccc2C=Cc2ccccc21 [Carbamazepine (Carbatrol)] | 93.1 ± 3.9% | 96.7 ± 3.8% | 93.3 ± 3% | 101.1 ± 0.14% | 108.4 ± 0.97% | 94.54 ± 0.19% | 101.9 ± 0.54% | 105.8 ± 0.3% | 103 ± 1.8% | 107.7 ± 0.39% | 105 ± 0.35% | 98.871 ± 0.053% |
| C[C@@](Cc1ccc(O)c(O)c1)(NN)C(=O)O [Carbidopa] | 97.3 ± 3.2% | 104 ± 5.4% | 90.03 ± 0.71% | 103 ± 1.6% | 99.6 ± 2.6% | 89.7 ± 1.3% | 92 ± 1.9% | 103.2 ± 0.12% | 93.7 ± 2.5% | 107 ± 2.1% | 104 ± 4.8% | 92.1 ± 1.4% |
